The values that follow are results of earlier work, collected in patent US8609722B2, “Anesthetic composition for topical administration comprising lidocaine, prilocaine and tetracaine” (priority 2003, dated 2013).

The test system of one series is erythrocyte heme protein. The settings on record: the very young may be more susceptible.

Structures can show the parent of a compound that is named as a salt.

On to `CCCNC(C)C(=O)Nc1ccccc1C` (centres unmarked) [prilocaine hydrochloride], for which the solubility in water result is listed as “readily soluble in water”. In the series on erythrocyte heme protein, the “dose above which symptoms of methemoglobinaemia usually occur” value is “exceed 8 mg per kg body-weight”.
